Measured values published in patent US20080194020A1, “Methods For Producing Dendritic Cells That Have Acquired Ctl-Inducing Ability” (Medical and Biological Laboratories Co., Ltd., priority 2004, published 2008).
Peptide text beside a SMILES is read from it. * marks the point of attachment. Cbz = O=C(OCc1ccccc1)*

Legend:
Assay type in all cases: cell-based, mouse
DC2.4 cells [1] = experiment: Degradation of cell-bound bOVA in DC2.4 cells (pulse-chase, SA beads, Western blot); settings: for effect on degradation of accumulated bOVA (ERAD inhibition): DC2.4 cells pulsed with bOVA in the presence of MG-132, chased four hours; for effect on bOVA degradation: FIG. 4b; for effect on decrease (degradation) of cell-bound bOVA: DC2.4 cells incubated with bOVA one hour, chased up to four hours, inhibitor present; for effect on degradation of bOVA taken up into cells: FIG. 1b
Description: Next, DC2.4 cells were incubated with bOVA for one hour, and this was then chased for up to four hours. Cell-bound bOVA was recovered from total cell lysates by streptavidin-agarose and separated by SDS-PAGE.
Depletion of Ca^2+ in the ER is known to inhibit ERAD. Thapsigargin (Tg) is known to decrease the Ca^2+ concentration in the ER lumen by binding to the ER membrane and functioning as an ionophore and to inhibit ERAD. Thus, in the presence of Tg, bOVA degradation by ERAD is predicted to be suppressed. DC2.4 cells were pulsed with bOVA in the presence of MG-132, then washed with PBS or with PBS containing 1 mM EGTA, and then chased for four hours.
Furthermore, the effect of tunicamycin treatment on bOVA accumulation was examined. When cells are treated with tunicamycin (Tm), N-type glycosylation is inhibited, and abnormally folded proteins accumulate in the ER lumen.

DC2.4 cells [2] = experiment: MHC class I cross-presentation by DC2.4 cells to OT-I CD8+ T cells (IL-2 ELISA); settings: for effect on stimulation of OT-I CD8+ T cells by OVA (IL-2 production) / effect on stimulation of OT-I CD8+ T cells by SIINFEKL peptide (IL-2 production): FIG. 8b; for effect on stimulation of OT-I CD8+ T cells by OVA (IL-2 production): OVA 250 μg mL−1; for effect on stimulation of OT-I CD8+ T cells by SIINFEKL peptide (IL-2 production): SIINFEKL 10 ng mL−1
From the text: Whether knock-down of cellular components involved in ERAD decreases the cross-presentation of exogenous OVA antigen was examined using a system for evaluating the level of antigen presentation, which uses naive CD8^+ T cells from OT-I mice and DC2.4 cells. The DC2.4 cells used as a model of dendritic cells are of the H-2Kb mouse MHC class I haplotype. OT-I (H-2Kb) mice are transgenic mice expressing a T cell receptor (TCRα and β) that recognizes an antigenic peptide (SIINFEKL) (SEQ ID NO: 15) derived from OVA presented on the H-2Kb molecules. The CD8^+ cells of OT-I mice are activated when they recognize OVA peptides presented by BMDCs derived from H-2Kb mice or by DC2.4 cells. When OVA or bOVA is incubated with and affixed onto DC2.4 cells and the cells are further incubated with naive CD8^+ T cells of OT-I mice, the amount of IL-2 produced by OT-I CD8^+ T cells serves as an index of T-cell stimulation as a result of OVA antigen presented by DC2.4 cells.
Parental or knocked-down DC2.4 cells were pre-incubated in a culture medium supplemented with 50 μg mL^−1 polymyxin B for 30 minutes in the presence or absence of lactacystin or MG-132, and incubated with OVA (250 μg mL^−1) or SIINFEKL peptides (10 ng mL^−1) for six hours. The cells were washed, fixed with 1% paraformaldehyde, and aliquoted into microtiter plates (5×10^4 per well). 5×10^4 CD8^+ T cells purified from splenocytes of OT-1 mice using magnetic beads were added to each well and after a 24-hour incubation, the IL-2 secretion was measured by ELISA (BD Biosciences) in triplicate.
DC2.4 cells were incubated with OVA (0, 50, or 250 μg/mL) in RPMI1640/10c% FCS for six hours at 37° C., in the presence or absence of pig-derived HSP90 (10 μg/mL). After washing away the antigen and HSP, OT-I CD8^+ T cells were added, cells were cultured overnight at 37° C., and the amount of IL-2 comprised in the supernatant was measured by the ELISA method.
The timing of the addition of HSP90 (10 μg/mL) and OVA (250 μg/mL) to DC2.4 cells was varied, and the effect on class I antigen presentation was observed. (i) HSP90 was added first, DC2.4 cells were washed, and then OVA was added. (ii) HSP90 and OVA were added simultaneously to DC2.4 cells. (iii) OVA was added first, and after washing DC2.4 cells, HSP90 was added. The results obtained under these three conditions were compared. As a control for all these conditions, an experiment in which only OVA, but not HSP90, was added was also carried out.
Under condition (i), HSP90 was added to DC2.4 cells, the cells were cultured for 30 minutes and then washed to remove HSP90. Next, OVA was added and the cells were cultured for three hours. Thereafter, OVA was removed by washing, and cells were cultured in just the culture medium for three hours. DC2.4 cells activated with OVA by the above procedure were plated in a 96-well plate, OT-I mouse-derived CD8^+ T cells were added to this, and after culturing overnight, the amount of IL-2 released into the supernatant was measured by ELISA.
Under condition (ii), OVA and HSP90 were added simultaneously to DC2.4 cells, cells were cultured for three hours, then washed, and cultured in just the culture medium for three hours. Thereafter, the procedures to investigate the activation of OT-I mouse-derived CD8^+ T cells was carried out similarly to in (i) above.
Under condition (iii), OVA was first added to DC2.4 cells, cells were cultured for three hours, and then washed to remove OVA. Next, HSP90 was added, and the cells were cultured for another three hours. The procedures that follow were carried out similarly to that of (i) and (ii). Meanwhile, timings were set such that the incubation times during the stage in which cells are in contact with OVA and the stage at which OVA has been taken up were the same under conditions (i) to (iii).

DC2.4 cells [3] = experiment: MHC class II antigen presentation by DC2.4 cells to OT-II CD4+ T cells (IL-2 production); settings: DC2.4 cells pretreated in the presence of NH4Cl, cultured with OVA
Description: DC2.4 cells pretreated in the presence of NH4Cl were cultured with OVA, and then the stimulation of OT-I CD8^+ T cells in response to MHC class I antigen presentation (circles) and stimulation of OT-II CD4^+ T cells in response to MHC class II antigen presentation (triangles) was determined by measuring IL-2 production levels. IL-2 production level in the presence of NH4Cl was expressed as a ratio relative to the control (IL-2 production was 700 pg/mL relative to OT-I, and 20 pg mL relative to OT-II).

With tunicamycin the “effect on degradation of accumulated bOVA (ERAD inhibition)” value (DC2.4 cells [1]) was “bOVA degradation was inhibited” and the “effect on bOVA degradation” value (DC2.4 cells [1]; tunicamycin 2 g) was “bOVA degradation is inhibited”.

For `C/C=C(/C)C(=O)O[C@H]1C(C)=C2[C@H]([C@@H]1OC(=O)CCCCCCC)[C@@](C)(OC(C)=O)C[C@H](OC(=O)CCC)[C@@]1(O)[C@H]2OC(=O)[C@@]1(C)O` [thapsigargin, Thapsigargin], the “effect on degradation of accumulated bOVA (ERAD inhibition)” value (DC2.4 cells [1]) was “inhibited the degradation of accumulated bOVA” and the “effect on bOVA degradation” value (DC2.4 cells [1]; thapsigargin 300 nM) was “bOVA degradation is inhibited”.

In the case of `CC(C)C[C@@H](C=O)NC(=O)[C@H](CC(C)C)NC(=O)[C@H](CC(C)C)NC(=O)OCc1ccccc1` [MG-132, reference compound] (Cbz-Leu-Leu-Leu-aldehyde), the “effect on decrease (degradation) of cell-bound bOVA” value (DC2.4 cells [1]) was “this decrease was blocked”, the “effect on degradation of bOVA taken up into cells” value (DC2.4 cells [1]; MG-132 10 μM) was “reduced the degradation of bOVA taken up into cells” and the “effect on stimulation of OT-I CD8+ T cells by OVA (IL-2 production)” value (DC2.4 cells [2]; MG-132 25 μM) was “suppressed stimulation by OVA”. The “effect on stimulation of OT-I CD8+ T cells by SIINFEKL peptide (IL-2 production)” value (DC2.4 cells [2]; MG-132 25 μM) was “did not suppress stimulation by the SIINFEKL peptide”.

For `Cl.N` [NH4Cl, Ammonium chloride, reference compound], the “effect on decrease (degradation) of cell-bound bOVA” value (DC2.4 cells [1]) was “did not significantly affect bOVA degradation”, the “effect on degradation of bOVA taken up into cells” value (DC2.4 cells [1]; NH4Cl 50 mM) was “did not reduce this degradation” and the “effect on presentation of OVA antigen with MHC class II to OT-II CD4+ cells” value (DC2.4 cells [3]) was “inhibited the presentation with MHC class II”. For the same molecule, the “effect on presentation of OVA antigen with MHC class I to OT-I CD8+ T cells” value (DC2.4 cells [2]; DC2.4 cells pretreated with inhibitor, cultured with OVA) was “did not reduce the presentation of the OVA antigen with MHC class I”.

In the case of `CC(=O)N[C@@H](CSC(=O)[C@]1([C@@H](O)C(C)C)NC(=O)[C@H](C)[C@@H]1O)C(=O)O` [lactacystin, reference compound], the “effect on decrease (degradation) of cell-bound bOVA” value (DC2.4 cells [1]) was “this decrease was blocked”, the “effect on degradation of bOVA taken up into cells” value (DC2.4 cells [1]; lactastatin 2 μM) was “reduced the degradation of bOVA taken up into cells” and the “effect on stimulation of OT-I CD8+ T cells by OVA (IL-2 production)” value (DC2.4 cells [2]; Lactastatin 10 μM) was “suppressed stimulation by OVA”. The “effect on stimulation of OT-I CD8+ T cells by SIINFEKL peptide (IL-2 production)” value (DC2.4 cells [2]; Lactastatin 10 μM) was “did not suppress stimulation by the SIINFEKL peptide”.
